Here are results for one compound from publication PMC9949698, “Visible-Light-Controlled Histone Deacetylase Inhibitors for Targeted Cancer Therapy” (Journal of Medicinal Chemistry, 2023).

For data set [1], the target named is T1, human recombinant HDAC1 (Homo sapiens, UniProt Q13547).
T1 construct: purchased BPS Bioscience
In words: Fluorogenic assay with human recombinant HDAC1, dark or illumination. In kind it is biochemical. The settings on record: for IC50: 1 h at room temperature (Table 2).

For data set [2] the following is noted: cited from earlier work.
Data set [3] is described as follows: E/Z composition under light or temperature conditions by HPLC. In kind it is physicochemical. Conditions: HPLC at isosbestic point (310–338 nm).
In another data set the test system is HeLa cells. In words: HeLa cell viability, MTS assay, dark or preillumination. In kind it is cell-based. Conditions: for IC50: Homo sapiens, HeLa.
A short description of data set [4]: UV–vis spectra and optimal isomerization wavelengths. It is filed as physicochemical.
Data set [5] deals with T1, human recombinant HDAC1. In words: Fluorogenic assay with human recombinant HDAC1, dark or illumination. The settings on record: enzyme incubated 6 h with or without preillumination, activity assessed every hour. In kind it is biochemical.
Setting [6] is: UV–vis at 25–50 μM in DMSO, Teleopto plates (Table 1).

SMILES strings stand for the structures. Where two headings read alike, the source gives them in different places.

T1 sequence (Q13547 whole entry): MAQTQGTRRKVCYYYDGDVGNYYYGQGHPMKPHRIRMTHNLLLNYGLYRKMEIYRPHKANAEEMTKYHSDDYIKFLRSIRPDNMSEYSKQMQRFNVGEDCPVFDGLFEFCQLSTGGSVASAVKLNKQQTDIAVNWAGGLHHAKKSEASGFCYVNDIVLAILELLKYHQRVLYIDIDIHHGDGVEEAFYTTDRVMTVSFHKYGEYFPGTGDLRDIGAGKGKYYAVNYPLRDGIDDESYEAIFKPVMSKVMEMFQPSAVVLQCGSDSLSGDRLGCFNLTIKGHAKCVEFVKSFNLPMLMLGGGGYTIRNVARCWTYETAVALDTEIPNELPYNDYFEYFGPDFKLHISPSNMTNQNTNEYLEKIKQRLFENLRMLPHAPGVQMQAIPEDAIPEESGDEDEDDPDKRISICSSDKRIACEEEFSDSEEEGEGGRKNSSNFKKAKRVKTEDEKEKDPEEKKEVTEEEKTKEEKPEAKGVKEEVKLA

With `COc1ccc(/N=N/c2ccc(/C=C/C(=O)NO)cc2)cc1` [Compound 1, reference compound], the “IC50(dark)/IC50(light)” value on human recombinant HDAC1 [1] (dark vs 365 or 380 nm (Table 2), fold) is reported as 18; with HeLa cells (Table 5) it was “≈1”. In addition, the IC50 on human recombinant HDAC1 [1] (dark, read-out: IC50 dark) is 0.96 µM; on human recombinant HDAC1 [1] (illumination 365 or 380 nm, read-out: IC50 light), 0.052 µM; with HeLa cells (dark, 48 h, read-out: IC50 dark (concentration that reduces cell viability by half)) it was approximately 12 µM; with HeLa cells (preillumination 380 nm, 48 h, read-out: IC50 light (concentration that reduces cell viability by half)), approximately 12 µM; in the data set with HeLa cells (supplementary CSV, read-out: HeLa MTS IC50 dark), 12 µM; in the data set on HeLa cells (supplementary CSV, read-out: HeLa MTS IC50 light), 12 µM. Further, the wavelength of isomerization in data set [2] is 365 nm. The “t1/2 (relaxation)” value in data set [2] (room temperature in buffer) is on record as 4.2 h. The “% cis at λcis” value in data set [3] (100 μM in DMSO after illumination with λcis (Table 1)) was 78%. Further, the “% trans at λtrans” value in data set [3] (100 μM in DMSO after illumination with λtrans (Table 1)) was 85%. Also, in data set [4] (setting [6]), the “λcis (optimal wavelength trans to cis)” value was found to be 380 nm. Moreover, the “λtrans (optimal wavelength cis to trans)” value in data set [4] (setting [6]) came out at 550 nm. In data set [4] (UV–vis spectra at 25–50 μM in DMSO (Table 1)), the λmax trans is 378 nm. Moreover, the “difference in activity between dark and illuminated conditions over incubation time” value on human recombinant HDAC1 [5] was “maintained over time”.
